A word on the IC50: it is the point on the concentration scale where inhibition reaches its midpoint.

One test concerns the target T1, SARS-CoV-2 MPro (main protease, 3CL protease, Nsp5) (Severe acute respiratory syndrome coronavirus 2, UniProt P0DTD1).
T1 construct: gene rep
The experiment in a line: fluorogenic NSP7 peptide cleavage, […] h preincubation, […] °C. Format: biochemical.
Conditions: not given
As for `O=Cc1cncc(C(=O)N2CCCC2c2cccc3ccccc23)c1` (centres unmarked) ['0292], the IC50 came to 100 µM. Still for that read-out and setting: the value for `N#CC(C(=O)c1cccnc1)c1cc(F)cc(F)c1` (centres unmarked) ['0431] was 50 µM. On to `CC1(Cc2ccc(F)cc2)CCCN1c1ncc(C=O)cn1` (centres unmarked) ['0892], for which the IC50 is 140 µM. `Cc1noc(CCCOc2c(C)cc(Br)cc2C=O)n1` ['2961] registered an IC50 of 100 µM. In turn, `O=Cc1ncc(Br)cc1OCc1ccc2c(c1)COC2` ['3620] showed an IC50 of 55 µM.

For the compound `O=Cc1ccc(Br)cc1OCc1ccc(Cl)c([N+](=O)[O-])c1` ['4218], the IC50 was > 200 µM. With `N#CC(C(=O)c1ccc([N+](=O)[O-])o1)c1cccnc1` (centres unmarked) ['5103], the IC50 was 20 µM. On the same count and under the same terms, the result for `O=Cc1cnc(N2CC(c3nc4ccccc4[nH]3)C2)nc1` ['5156] reads 80 µM. Still for that read-out and setting: the result for `O=C1CN(Cc2ccc(F)cc2)C(=O)N1c1cncc2ccccc12` ['5548] reads 30 µM. Take `O=C1N[C@@]2(CCc3ccccc32)C(=O)N1c1cncc2ccccc12` ['6111]: half-maximal inhibition (IC50) required 25 µM. `O=Cc1ncc(Br)cc1OCc1cc(Cl)cc(Br)c1` ['6117] came in with an IC50 of 7 µM. The same measure, in the same setting: the result for `N#Cc1ccc(Br)c(COc2cc(Br)cnc2C=O)c1` ['6690] reads 2 µM; that for `Cc1c(C(=O)C(C#N)C(=O)Nc2ccccc2)nnn1-c1ccccc1` (centres unmarked) ['6792], 100 µM. The same measure, in the same setting: the value for `O=Cc1ncc(Br)cc1OCc1ccc(Cl)c([N+](=O)[O-])c1` ['7021] was 1 µM. On the same count and under the same terms, the value for `O=Cc1ncc(Br)cc1OCc1ccc2ccccc2c1` ['7356] was 26 µM. As for `O=Cc1ncc(Br)cc1OCc1cc(Br)ccc1Cl` ['8252], it took 6 µM to reach half-maximal inhibition (IC50). Still for that read-out and setting: the value for `O=Cc1ncc(Br)cc1OCc1cccc([N+](=O)[O-])c1` ['9112] was 35 µM; that for `O=Cc1ncc(Br)cc1OCc1ccc(Cl)c(Br)c1` ['9121] was 6 µM. Same read-out and setting: the value for `Cc1ccc(COc2cc(Br)cnc2C=O)cc1[N+](=O)[O-]` ['9218] was 12 µM; that for `O=Cc1ncc(Br)cc1OCc1cccc([N+](=O)[O-])c1Cl` ['9220] was 33 µM; that for `O=Cc1ncc(Br)cc1OCc1ccc(Cl)cc1` ['9313] was 22 µM. Still for that read-out and setting: the value for `C[C@H]1CN(C(=O)Nc2cncc3ccccc23)Cc2ccccc2O1` [SG-0001] was 55 µM; that for `COc1ccc(Br)cc1C(=O)C(=O)Nc1cncc(C)c1` [Z1355254448] was 110 µM. Take `CSc1ccncc1NC(=O)C(=O)c1ccc(F)cc1` [Z1669286714]: the IC50 is 110 µM.

Regarding `Cn1cccc1C(=O)C(=O)Nc1cnccc1Oc1ccccc1` [Z2195811405], the IC50 is ~200 µM. `O=C1CCN(Cc2cccs2)C(=O)N1Cc1ccc[nH]c1=O` [Z3535317212] returned an IC50 of 29 µM.

For `CC1(C)CN(C(=O)Nc2cncc3ccccc23)Cc2cc(Br)ccc2O1` [Z4924562413], the IC50 was found to be 13 µM. Still for that read-out and setting: the value for `O=C1NC(c2cccc3ccccc23)C(=O)N1c1cncc2ccccc12` (centres unmarked) [Z4929615577] was 10 µM; that for `CC1CCC2(NC(=O)N(c3cncc4ccccc34)C2=O)c2ccccc21` (centres unmarked) [Z4929616137] was 8 µM; that for `O=C(Cc1cncc2ccccc12)N1CCOc2ccc(Cl)cc2C1` [Z4946671001] was 5 µM. Same read-out and setting: the result for `Cc1ccc(F)cc1C(=O)C(=O)Nc1cncc(Br)c1C` [Z5420225795] reads 40 µM; that for `COc1cc(C=O)c(OS(=O)(=O)CC2CCCCC2)cc1OC` [ZINC271072260], 143 µM; that for `Cc1noc(C)c1CCCNc1nc(-c2ccncc2)nc2ccccc12` [ZINC301553312], 63 µM. On the same count and under the same terms, the value for `COC(=O)c1cc(C#N)c(=O)n(Cc2cccc(F)c2Cl)c1` [ZINC338540162] was 30 µM.

`O=C(Cc1cccnc1)N(Cc1ccccn1)c1ccc(Cl)cc1` [ZINC346371112] registered an IC50 of 98 µM. `CC1CN(C(=O)CCn2cc(Br)ccc2=O)Cc2ccccc2O1` (centres unmarked) [ZINC553840273] returned an IC50 of 88 µM. Same read-out and setting: the result for `Cc1cc(C(=O)C(=O)Nc2cnccc2F)ccc1F` [ZINC5420738300] reads 160 µM.

The same test, now with this note: pH 7.4, 0.05% Tween-20, 1 mM DTT, substrate 12.7 μM (Km); DMSO stock; possibly covalent warhead; read-out: IC50[DMSO].
Turning to ZINC795258204, the IC50 was found to be 177 µM.

For the origin of these results see doi:10.1101/2022.07.05.498881v1 (biorxiv, 2022).
